ChEMBL document CHEMBL1132385 (J Med Chem, 1999)

target: Neuronal acetylcholine receptor; assay: Evaluated for its binding affinity towards Nicotinic acetylcholine receptor in rat brain homogenate; assay type: tissue-based

Row | SMILES | Ki [nM]
1 | CN1[C@@H](CCc2ccccc2)CCC[C@H]1CCc1ccccc1 [LOBELANE] | > 10000
2 | CN(CCCc1ccccc1)CCCc1ccccc1 | > 10000
3 | C[N+]1(C)[C@@H](CC(=O)c2ccccc2)CCC[C@H]1C[C@H](O)c1ccccc1 | 2030
4 | CN1[C@@H](C[C@@H](O)c2ccccc2)CCC[C@H]1C[C@H](O)c1ccccc1 | 300
5 | CN1[C@H](CCc2ccccc2)CCC[C@@H]1C[C@@H](O)c1ccccc1 [8R-hydroxylobelane] | 340
6 | CN1[C@@H](CC(=O)c2ccccc2)CCC[C@H]1C[C@H](Cl)c1ccccc1 | 5
7 | CN1CCCC[C@H]1C[C@H](O)c1ccccc1 | > 10000
8 | CN1[C@@H](CCc2ccccc2)CCC[C@H]1C[C@H](O)c1ccccc1 | 235
9 | CN(C)CCC(O)c1ccccc1 (centres undefined) | > 10000
10 | CN1[C@H](CCc2ccccc2)CCC[C@@H]1CC(=O)c1ccccc1 | 110
11 | CN1CCCCC1CCc1ccccc1 (centres undefined) | 2490
12 | CN(CCC(=O)c1ccccc1)CCC(=O)c1ccccc1 | > 10000
13 | CN1[C@@H](CC(=O)c2ccccc2)CCC[C@H]1/C=C/c1ccccc1 | 1080
14 | CN1[C@@H](CC(=O)c2ccccc2)CCC[C@H]1CC(=O)c1ccccc1 | 7800
